For assay [1], the system named is Caco-2 cells. The assay is described as follows: Proliferation assay Caco-2 (Method 3). The assay is classed as cell-based, human. Particulars: Caco-2, 4 days, crystal violet, read-out: Inhibition of Caco-2 cell proliferation IC50. How it is done:
(§1) Cultivated tumour cells (HeLa, human cervical tumour cells, ATCC CCL-2; NCI-H460, human non-small cell lung carcinoma cells, ATCC HTB-177; A2780, human ovarian carcinoma cells, ECACC #93112519; DU 145, hormone-independent human prostate carcinoma cells, ATCC HTB-81; HeLa-MaTu-ADR, multidrug-resistant human cervical carcinoma cells, EPO-GmbH Berlin; Caco-2, human colorectal carcinoma cells, ATCC HTB-37; B16F10, mouse melanoma cells, ATCC CRL-6475) were plated at a density of 5,000 cells/well (DU145, HeLa-MaTu-ADR), 3,000 cells/well (NCI-H460, HeLa), 2,500 cells/well (A2780), 1,500 cells/well (Caco-2), or 1,000 cells/well (B16F10) in a 96-well multititer plate in 200 μL of their respective growth medium supplemented 10% fetal calf serum. After 24 hours, the cells of one plate (zero-point plate) were stained with crystal violet (see below), while the medium of the other plates was replaced by fresh culture medium (200 μl), to which the test substances were added in various concentrations (0 μM, as well as in the range of 0.001-10 μM; the final concentration of the solvent dimethyl sulfoxide was 0.5%). The cells were incubated for 4 days in the presence of test substances. Cell proliferation was determined by staining the cells with crystal violet: the cells were fixed by adding 20 μl/measuring point of an 11% glutaric aldehyde solution for 15 minutes at room temperature. After three washing cycles of the fixed cells with water, the plates were dried at room temperature. The cells were stained by adding 100 μl/measuring point of a 0.1% crystal violet solution (pH 3.0). After three washing cycles of the stained cells with water, the plates were dried at room temperature. The dye was dissolved by adding 100 μl/measuring point of a 10% acetic acid solution. The extinction was determined by photometry at a wavelength of 595 nm. The change of cell number, in percent, was calculated by normalization of the measured values to the extinction values of the zero-point plate (=0%) and the extinction of the untreated (0 μm) cells (=100%). The IC50 values (inhibitory concentration at 50% of maximal effect) were determined by means of a 4 parameter fit.

The subject of assay [2] is B16F10 cells. Description: Proliferation assay B16F10 (Method 3). The class given is cell-based, mouse. The following applies: 4 days, crystal violet, read-out: Inhibition of Bc6F10 cell proliferation IC50. On the procedure: as §1
Assay [3] deals with A2780 cells. The assay is described as follows: Proliferation assay A2780 (Method 3). The class given is cell-based, human. The following applies: A2780, 4 days, crystal violet, read-out: Inhibition of A2780 cell proliferation IC50. On the procedure: as §1
The target in assay [4] is T1, CDK2/CycE (Homo sapiens, UniProt P24941).
T1 construct: GST; purchased ProQinase GmbH (Freiburg, Germany); host or cells: insect cells (Sf9)
The assay is described as follows: CDK2/CycE kinase assay (Method 2a, TR-FRET). The assay is classed as biochemical. The following applies: 10 μM ATP. The source says:
2a. CDK2/CycE kinase assay:
CDK2/CycE-Inhibitory Activity of Compounds of the Present Invention was Quantified Employing the CDK2/CycE TR-FRET Assay as Described in the Following Paragraphs:
Recombinant fusion proteins of GST and human CDK2 and of GST and human CycE, expressed in insect cells (Sf9) and purified by Glutathion-Sepharose affinity chromatography, were purchased from ProQinase GmbH (Freiburg, Germany). As substrate for the kinase reaction biotinylated peptide biotin-Ttds-YISPLKSPYKISEG (C-terminus in amid form) was used which can be purchased e.g. form the company JERINI Peptide Technologies (Berlin, Germany).
For the assay 50 nl of a 100 fold concentrated solution of the test compound in DMSO was pipetted into a black low volume 384 well microtiter plate (Greiner Bio-One, Frickenhausen, Germany), 2 yl of a solution of CDK2/CycE in aqueous assay buffer [50 mM Tris/HCl pH 8.0, 10 mM MgCl2, 1.0 mM dithiothreitol, 0.1 mM sodium ortho-vanadate, 0.01% (v/v) Nonidet-P40 (Sigma)] were added and the mixture was incubated for 15 min at 22° C. to allow pre-binding of the test compounds to the enzyme before the start of the kinase reaction. […] The concentration of CDK2/CycE was adjusted depending of the activity of the enzyme lot and was chosen appropriate to have the assay in the linear range, typical concentrations were in the range of 130 ng/mL. The reaction was stopped by the addition of 5 yl of a solution of TR-FRET detection reagents (0.2 μM streptavidine-XL665 [Cisbio Bioassays, Codolet, France] and 1 nM anti-RB(pSer807/pSer811)-antibody from BD Pharmingen [#558389] and 1.2 nM LANCE EU-W1024 labeled anti-mouse IgG antibody [Perkin-Elmer, product no. AD0077]) in an aqueous EDTA-solution (100 mM EDTA, 0.2% (w/v) bovine serum albumin in 100 mM HEPES/NaOH pH 7.0).
The resulting mixture was incubated 1 h at 22° C. to allow the formation of complex between the phosphorylated biotinylated peptide and the detection reagents. Subsequently the amount of phosphorylated substrate was evaluated by measurement of the resonance energy transfer from the Eu-chelate to the streptavidine-XL. Therefore, the fluorescence emissions at 620 nm and 665 nm after excitation at 350 nm was measured in a TR-FRET reader, e.g. a Rubystar (BMG Labtechnologies, Offenburg, Germany) or a Viewlux (Perkin-Elmer). The ratio of the emissions at 665 nm and at […] was taken as the measure for the amount of phosphorylated substrate. The data were normalised (enzyme reaction without inhibitor=0% inhibition, all other assay components but no enzyme=100% inhibition).
(Time-resolved FRET reads energy transfer from a long-lived donor to a nearby acceptor.)

For assay [5], the system named is NCI-H460 cells. The assay is described as follows: Proliferation assay NCI-H460 (Method 3). The following applies: NCI-H460, 4 days, crystal violet, read-out: Inhibition of NCI-H460 cell proliferation IC50. The class given is cell-based, human. On the procedure: as §1

These results are taken from patent US9884849B2, “Fluorinated benzofuranyl-pyrimidine derivatives containing a sulfoximine group” (Bayer Pharma Aktiengesellschaft, priority 2014, dated 2018).

Where two headings read alike, the source gives them in different places.

For `CS(=N)(=O)Cc1cccc(Nc2ncc(F)c(-c3ccc(F)c4ccoc34)n2)c1` (single isomer, unassigned) [Example 6, 5-Fluoro-4-(4-fluoro-1-benzofuran-7-yl)-N-{3-[(S-methylsulfonimidoyl)-methyl]-phenyl}-pyrimidin-2-amine], the IC50 in assay [1] is 0.112 µM; in assay [2], 0.185 µM; in assay [3], 0.038 µM; in assay [4] it was 0.057 µM; in assay [5], 0.314 µM.

As to `CS(=O)(Cc1cc(F)cc(Nc2ncc(F)c(-c3ccc(F)c4ccoc34)n2)c1)=NC#N` (single isomer, unassigned) [Example 8, [(3-Fluoro-5-{[5-fluoro-4-(4-fluoro-1-benzofuran-7-yl)pyrimidin-2-yl]amino}benzyl)(methyl)-oxido-λ^6-sulfanylidene]cyanamide], the IC50 in assay [1] (Homo sapiens, Caco-2, 96 h) turned out to be 0.043 µM; in assay [2] (Mus musculus, B16-F10, 96 h), 0.056 µM; in assay [3] (Homo sapiens, A2780, 96 h), 0.037 µM; in assay [4], 0.062 µM; in assay [5] (Homo sapiens, NCI-H460, 96 h), 0.119 µM.

Take `CS(=O)(Cc1cc(F)cc(Nc2ncc(F)c(-c3ccc(F)c4ccoc34)n2)c1)=NC#N` (single isomer, unassigned) [Example 9, [(3-Fluoro-5-{[5-fluoro-4-(4-fluoro-1-benzofuran-7-yl)pyrimidin-2-yl]amino}benzyl)(methyl)-oxido-λ^6-sulfanylidene]cyanamide]: the IC50 amounted to 0.054 µM in assay [1]; 0.052 µM in assay [2]; 0.019 µM in assay [3]; 0.088 µM in assay [4]; 0.106 µM in assay [5].

Take `CS(=N)(=O)Cc1cc(F)cc(Nc2ncc(F)c(-c3ccc(F)c4ccoc34)n2)c1` (single isomer, unassigned) [Example 11, 5-Fluoro-4-(4-fluoro-1-benzofuran-7-yl)-N-{3-fluoro-5-[(S-methylsulfonimidoyl)-methyl]-phenyl}-pyrimidin-2-amine]: the IC50 in assay [1] (Homo sapiens, Caco-2, 96 h) was 0.047 µM; in assay [2], 0.045 µM; in assay [3] (Homo sapiens, A2780, 96 h) it was 0.032 µM; in assay [4], 0.073 µM; in assay [5] (Homo sapiens, NCI-H460, 96 h), 0.083 µM.

Consider `CS(=N)(=O)Cc1cc(F)cc(Nc2ncc(F)c(-c3ccc(F)c4ccoc34)n2)c1` (single isomer, unassigned) [Example 12, 5-Fluoro-4-(4-fluoro-1-benzofuran-7-yl)-N-{3-fluoro-5-[(S-methylsulfonimidoyl)-methyl]-phenyl}-pyrimidin-2-amine], for which the IC50 in assay [1] came out at 0.057 µM; in assay [2], 0.094 µM; in assay [3], 0.035 µM; in assay [4], 0.048 µM; in assay [5] it was 0.059 µM.

As for `Cc1cc(CS(C)(=O)=NC#N)cc(Nc2ncc(F)c(-c3ccc(F)c4ccoc34)n2)c1` (single isomer, unassigned) [Example 14, [(3-{[5-Fluoro-4-(4-fluoro-1-benzofuran-7-yl)pyrimidin-2-yl]amino}-5-methylbenzyl)-(methyl)oxido-λ^6-sulfanylidene]cyanamide], the IC50 worked out at 0.061 µM in assay [1] (Homo sapiens, Caco-2, 96 h); 0.069 µM in assay [2] (Mus musculus, B16-F10, 96 h); 0.045 µM in assay [3] (Homo sapiens, A2780, 96 h); 0.065 µM in assay [4]; 0.112 µM in assay [5] (Homo sapiens, NCI-H460, 96 h).

On to `Cc1cc(CS(C)(=O)=NC#N)cc(Nc2ncc(F)c(-c3ccc(F)c4ccoc34)n2)c1` (single isomer, unassigned) [Example 15, [(3-{[5-Fluoro-4-(4-fluoro-1-benzofuran-7-yl)pyrimidin-2-yl]amino}-5-methylbenzyl)-(methyl)oxido-λ^6-sulfanylidene]cyanamide], for which the IC50 in assay [1] came to 0.068 µM; in assay [2], 0.114 µM; in assay [3], 0.063 µM; in assay [4] it was 0.095 µM; in assay [5], 0.121 µM.
